Read-outs that look alike come from different tables or passages of the source.
How the values were obtained:
Format in all cases: cell-based
Human Cav 2.2 channels = Human Cav 2.2 channels (Homo sapiens, UniProt Q00975); assay: Fluorescent assay for CaV2.2 channels using potassium depolarization (VIPR/FLIPR); conditions: FLIPR data; for CAv2.2 IC50 Ratio closed/inact.: ratio closed/inactivated IC50
In short: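 Fluo-4 calcium fluorescence (480/535 nm) was recorded on VIPR or FLIPR after depolarization to 70 mM final potassium. Before this, cells were preincubated 30 min at 25 °C with compound in 4–30 mM potassium, so that state-dependent block could be assessed; the cells were HEK293 coexpressing Cav2.2, α2δ, β and Kir2.3.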

T-type calcium channel [1] = target: T-type calcium channel (Homo sapiens, UniProt O95180); assay: T-type channel blocking, FLIPR data (Table 6); conditions: for CAv3.2 IC50 Ratio closed/inact.: CAv3.2, ratio closed/inactivated IC50
From the text: (§1) Another method, high-throughput spectrophotometric assay, utilizes loading of the cell lines with a fluorescent dye sensitive to intracellular calcium concentration and subsequent examination of the effects of compounds on the ability of depolarization by potassium chloride or other means to alter intracellular calcium levels.

T-type calcium channel [2] = target: T-type calcium channel (Homo sapiens, UniProt O43497); assay: T-type channel blocking, FLIPR data (Table 6); conditions: CAv3.1
From the text: as §1

CAv1.2 = CAv1.2 (Homo sapiens, UniProt Q13936); assay: FLIPR data, CAv1.2 channel blocking (Table 6); conditions: for CAv1.2 IC50 Ratio closed/inact.: ratio closed/inactivated IC50
[3] = closed state, read-out: CAv2.2 IC50 Closed
[4] = inactivated state, read-out: CAv2.2 IC50 Inact.
[5] = CAv3.2, closed state, read-out: CAv3.2 IC50 Closed
[6] = CAv3.2, inactivated state, read-out: CAv3.2 IC50 Inact.
[7] = closed state, read-out: CAv1.2 IC50 Closed
[8] = inactivated state, read-out: CAv1.2 IC50 Inact.

Sequence of Human Cav 2.2 channels (Q00975 whole entry): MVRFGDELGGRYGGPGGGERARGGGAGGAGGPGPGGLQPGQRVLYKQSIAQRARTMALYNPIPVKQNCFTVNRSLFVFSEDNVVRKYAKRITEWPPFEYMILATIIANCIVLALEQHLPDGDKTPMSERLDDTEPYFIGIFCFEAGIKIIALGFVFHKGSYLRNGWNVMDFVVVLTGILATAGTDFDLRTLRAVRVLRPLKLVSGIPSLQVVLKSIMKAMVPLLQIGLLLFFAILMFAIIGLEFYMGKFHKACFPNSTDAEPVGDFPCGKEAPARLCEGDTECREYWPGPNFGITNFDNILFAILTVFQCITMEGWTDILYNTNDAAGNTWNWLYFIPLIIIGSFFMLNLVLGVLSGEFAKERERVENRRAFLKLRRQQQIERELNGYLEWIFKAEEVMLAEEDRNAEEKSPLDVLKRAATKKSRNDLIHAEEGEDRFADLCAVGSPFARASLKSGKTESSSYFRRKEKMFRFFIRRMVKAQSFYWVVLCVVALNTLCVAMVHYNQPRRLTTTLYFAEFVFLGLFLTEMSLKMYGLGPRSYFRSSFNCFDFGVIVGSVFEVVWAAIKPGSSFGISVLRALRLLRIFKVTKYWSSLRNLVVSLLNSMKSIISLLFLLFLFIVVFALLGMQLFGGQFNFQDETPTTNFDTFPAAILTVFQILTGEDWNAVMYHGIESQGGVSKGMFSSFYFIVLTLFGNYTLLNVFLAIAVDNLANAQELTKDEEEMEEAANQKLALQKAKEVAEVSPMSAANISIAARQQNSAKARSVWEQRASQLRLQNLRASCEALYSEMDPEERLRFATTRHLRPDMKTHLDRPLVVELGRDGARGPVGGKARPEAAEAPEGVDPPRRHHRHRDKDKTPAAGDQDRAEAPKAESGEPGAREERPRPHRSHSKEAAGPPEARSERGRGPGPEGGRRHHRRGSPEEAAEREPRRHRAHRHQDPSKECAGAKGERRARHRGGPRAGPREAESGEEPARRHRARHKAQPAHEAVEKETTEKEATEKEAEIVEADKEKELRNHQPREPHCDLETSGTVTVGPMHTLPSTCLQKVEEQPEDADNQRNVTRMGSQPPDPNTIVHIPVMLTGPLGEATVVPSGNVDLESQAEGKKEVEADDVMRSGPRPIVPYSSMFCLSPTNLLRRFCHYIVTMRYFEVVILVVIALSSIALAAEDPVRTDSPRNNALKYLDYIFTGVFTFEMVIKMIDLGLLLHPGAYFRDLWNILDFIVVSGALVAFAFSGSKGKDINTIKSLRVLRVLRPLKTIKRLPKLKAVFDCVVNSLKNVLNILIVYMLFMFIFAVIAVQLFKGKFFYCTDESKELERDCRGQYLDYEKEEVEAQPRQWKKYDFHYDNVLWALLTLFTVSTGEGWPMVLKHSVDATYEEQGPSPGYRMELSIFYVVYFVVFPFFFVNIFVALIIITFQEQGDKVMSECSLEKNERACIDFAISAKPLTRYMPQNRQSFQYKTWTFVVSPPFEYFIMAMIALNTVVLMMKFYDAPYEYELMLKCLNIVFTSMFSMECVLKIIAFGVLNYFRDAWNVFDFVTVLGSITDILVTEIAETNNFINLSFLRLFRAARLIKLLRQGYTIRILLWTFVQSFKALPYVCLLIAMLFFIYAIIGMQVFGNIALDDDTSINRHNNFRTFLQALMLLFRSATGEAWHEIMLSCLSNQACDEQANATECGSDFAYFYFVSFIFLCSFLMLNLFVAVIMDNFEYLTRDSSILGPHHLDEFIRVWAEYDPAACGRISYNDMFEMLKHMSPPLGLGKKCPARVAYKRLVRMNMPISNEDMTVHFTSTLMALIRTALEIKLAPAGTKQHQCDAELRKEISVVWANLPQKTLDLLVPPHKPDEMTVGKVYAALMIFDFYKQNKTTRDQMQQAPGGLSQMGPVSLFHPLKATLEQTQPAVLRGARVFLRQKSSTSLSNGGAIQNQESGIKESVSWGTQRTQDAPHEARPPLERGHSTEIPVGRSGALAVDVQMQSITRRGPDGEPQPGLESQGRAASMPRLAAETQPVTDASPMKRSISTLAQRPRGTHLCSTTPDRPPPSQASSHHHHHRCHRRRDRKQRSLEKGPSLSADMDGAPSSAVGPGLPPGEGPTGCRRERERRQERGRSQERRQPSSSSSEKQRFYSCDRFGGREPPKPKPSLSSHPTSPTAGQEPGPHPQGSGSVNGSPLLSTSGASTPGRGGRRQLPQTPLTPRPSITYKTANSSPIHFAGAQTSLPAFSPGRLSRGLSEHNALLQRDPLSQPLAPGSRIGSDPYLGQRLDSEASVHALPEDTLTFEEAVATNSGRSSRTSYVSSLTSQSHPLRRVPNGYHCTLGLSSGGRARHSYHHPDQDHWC
Sequence of Human Cav 2.2 channels (P54289 25-1103 partner): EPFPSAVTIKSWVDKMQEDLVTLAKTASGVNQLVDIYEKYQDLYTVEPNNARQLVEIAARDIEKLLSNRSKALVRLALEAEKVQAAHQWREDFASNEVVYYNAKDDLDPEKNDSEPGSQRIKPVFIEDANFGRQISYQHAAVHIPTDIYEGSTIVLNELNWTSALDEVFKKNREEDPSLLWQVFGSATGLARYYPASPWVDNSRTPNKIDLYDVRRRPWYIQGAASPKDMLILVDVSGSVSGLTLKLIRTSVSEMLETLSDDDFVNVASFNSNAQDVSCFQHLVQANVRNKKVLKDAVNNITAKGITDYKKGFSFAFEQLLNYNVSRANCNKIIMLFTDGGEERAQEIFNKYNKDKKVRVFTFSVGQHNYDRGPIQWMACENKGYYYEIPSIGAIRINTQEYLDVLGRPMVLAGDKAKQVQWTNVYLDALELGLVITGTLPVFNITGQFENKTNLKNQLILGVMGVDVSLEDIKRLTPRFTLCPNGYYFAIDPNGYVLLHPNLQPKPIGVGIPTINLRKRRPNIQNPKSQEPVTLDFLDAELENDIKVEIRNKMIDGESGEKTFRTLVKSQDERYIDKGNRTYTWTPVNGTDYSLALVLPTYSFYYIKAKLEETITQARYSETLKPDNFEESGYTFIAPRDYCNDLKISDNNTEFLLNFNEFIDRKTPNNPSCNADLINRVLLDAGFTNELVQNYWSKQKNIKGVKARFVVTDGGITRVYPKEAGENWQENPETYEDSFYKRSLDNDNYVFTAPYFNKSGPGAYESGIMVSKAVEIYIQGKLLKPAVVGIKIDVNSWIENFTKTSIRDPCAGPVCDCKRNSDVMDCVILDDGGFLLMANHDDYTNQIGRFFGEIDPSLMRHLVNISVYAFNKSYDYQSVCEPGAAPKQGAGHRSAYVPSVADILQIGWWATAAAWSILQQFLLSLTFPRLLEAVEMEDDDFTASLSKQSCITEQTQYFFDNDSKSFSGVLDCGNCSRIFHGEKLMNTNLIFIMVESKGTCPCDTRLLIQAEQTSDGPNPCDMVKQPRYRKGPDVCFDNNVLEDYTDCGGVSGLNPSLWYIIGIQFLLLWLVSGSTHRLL
Sequence of Human Cav 2.2 channels (P54284 whole entry partner): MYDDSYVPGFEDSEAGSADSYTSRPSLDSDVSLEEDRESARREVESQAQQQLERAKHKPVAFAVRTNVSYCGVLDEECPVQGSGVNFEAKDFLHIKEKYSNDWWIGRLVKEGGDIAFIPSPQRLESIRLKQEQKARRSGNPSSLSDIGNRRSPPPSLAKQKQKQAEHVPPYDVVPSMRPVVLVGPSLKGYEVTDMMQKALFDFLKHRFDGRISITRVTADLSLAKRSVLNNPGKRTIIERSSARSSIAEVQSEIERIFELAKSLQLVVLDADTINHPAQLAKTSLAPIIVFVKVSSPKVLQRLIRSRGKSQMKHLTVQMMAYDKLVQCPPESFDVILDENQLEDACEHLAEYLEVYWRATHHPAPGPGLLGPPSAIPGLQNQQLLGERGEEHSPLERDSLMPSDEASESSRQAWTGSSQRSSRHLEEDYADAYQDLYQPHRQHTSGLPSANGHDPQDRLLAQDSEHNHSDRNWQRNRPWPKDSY

Structure (SMILES) | IC50 (Human Cav 2.2 channels; [3]) | IC50 (Human Cav 2.2 channels; [4]) | CAv2.2 IC50 Ratio closed/inact. (Human Cav 2.2 channels) | IC50 (T-type calcium channel [1]; [5]) | IC50 (T-type calcium channel [1]; [6]) | CAv3.2 IC50 Ratio closed/inact. (T-type calcium channel [1]) | IC50 (T-type calcium channel [2]) | IC50 (CAv1.2; [7]) | IC50 (CAv1.2; [8]) | CAv1.2 IC50 Ratio closed/inact. (CAv1.2)
CC(C)([C@H]1C[C@@H](NS(=O)(=O)c2ccc(F)c(Cl)c2)C1)S(=O)(=O)c1cccc(C(F)(F)F)c1 [Compound 625] | 10 µM | 1.09 µM | 9.2 | 3.71 µM | 3.1 µM | 1.2 | 3.74 µM | ≥ 10 µM | 6.39 µM | 1.6
CC(C)([C@H]1C[C@@H](NS(=O)(=O)c2ccc(C(F)(F)F)cc2Cl)C1)S(=O)(=O)c1cccc(C(F)(F)F)c1 [Compound 627] | 10 µM | 0.88 µM | 11.4 | 2.2 µM | 1.33 µM | 1.7 | 2.38 µM | ≥ 10 µM | 5.86 µM | 1.7
CC(C)([C@H]1C[C@@H](NS(=O)(=O)c2ccc(F)c(C(F)(F)F)c2)C1)S(=O)(=O)c1cccc(C(F)(F)F)c1 [Compound 628] | 10 µM | 1.22 µM | 8.2 | 3.22 µM | 3.26 µM | 1 | 2.18 µM | ≥ 10 µM | 5.32 µM | 1.9
CC(C)([C@H]1C[C@@H](NS(=O)(=O)c2ccc(OC(F)(F)F)cc2)C1)S(=O)(=O)c1cccc(C(F)(F)F)c1 [Compound 630] | 10 µM | 0.68 µM | 14.7 | 3.73 µM | 2.16 µM | 1.7 | 2.33 µM | ≥ 10 µM | 3.11 µM | 3.2

Now from value to molecule, other results behind:

IC50 (Human Cav 2.2 channels; [3]) | IC50 (Human Cav 2.2 channels; [4]) | CAv2.2 IC50 Ratio closed/inact. (Human Cav 2.2 channels) | IC50 (T-type calcium channel [1]; [5]) | IC50 (T-type calcium channel [1]; [6]) | CAv3.2 IC50 Ratio closed/inact. (T-type calcium channel [1]) | IC50 (T-type calcium channel [2]) | Structure (SMILES) | IC50 (CAv1.2; [7]) | IC50 (CAv1.2; [8]) | CAv1.2 IC50 Ratio closed/inact. (CAv1.2)
4.79 µM | 0.68 µM | 7 | ≥ 10 µM | 4.48 µM | 2.2 | 4.86 µM | CC(C)([C@H]1C[C@@H](NS(=O)(=O)c2ccc(C(F)(F)F)cc2Cl)C1)S(=O)(=O)c1cc(F)cc(C(F)(F)F)c1 [Compound 622] | 9.01 µM | 1.94 µM | 4.6
3.37 µM | 0.74 µM | 4.6 | ≥ 10 µM | 1.54 µM | 6.5 | 5.3 µM | CC(C)([C@H]1C[C@H](NS(=O)(=O)c2ccc(C(F)(F)F)cc2Cl)C1)S(=O)(=O)c1cc(F)cc(C(F)(F)F)c1 [Compound 623] | 8.07 µM | 1.54 µM | 5.2
10 µM | 0.8 µM | 12.5 | 2.96 µM | 2.26 µM | 1.3 | 2.96 µM | CC(C)([C@H]1C[C@@H](NS(=O)(=O)c2ccc(C(F)(F)F)cc2)C1)S(=O)(=O)c1cccc(C(F)(F)F)c1 [Compound 624] | ≥ 10 µM | 5.54 µM | 1.8
8.45 µM | 1.1 µM | 7.7 | 3.85 µM | 2.58 µM | 1.5 | 3.77 µM | CC(C)([C@H]1C[C@@H](NS(=O)(=O)c2ccc(Cl)c(F)c2)C1)S(=O)(=O)c1cccc(C(F)(F)F)c1 [Compound 626] | 9.15 µM | 5.4 µM | 1.7
7.45 µM | 0.43 µM | 17.3 | 3.41 µM | 3.38 µM | 1 | 2.97 µM | CC(C)([C@H]1C[C@@H](NS(=O)(=O)c2ccc(C(F)(F)F)nc2)C1)S(=O)(=O)c1cccc(C(F)(F)F)c1 [Compound 629] | ≥ 10 µM | 4.66 µM | 2.1

Source: patent US20120245137A1 (Zalicus Pharmaceuticals Ltd., priority 2009, published 2012)
